Experimental data published in patent US9493444B2 (Merck Patent GmbH, priority 2012, dated 2016).

Each compound was assayed on Wnt pathway (TCF-dependent transcription in HEK293 luciferase reporter cell line with ER-DSH construct) (assay: Cellular assay for Wnt pathway activity (luciferase reporter)). Settings: Homo sapiens; Wnt pathway inhibition, HEK293 luciferase reporter cells (ER-DSH, TCF promoter), 24 hours incubation, estrogen-induced.
Type: cell-based
In short: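 Compounds (30 μM down to 1 nM) were incubated 24 h on cells induced for TCF-dependent transcription with estrogen. Luciferase activity was read by luminescence, normalized to untreated vehicle control, and fitted for IC50.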

| Structure (SMILES) | IC50 |
| --- | --- |
| CC(=O)N(C)CCCc1cncc(Oc2ccc(-c3ccncc3C#N)cc2)c1 [Compound 321, N-(3-{5-[4-(3-Cyano-pyridin-4-yl)-phenoxy]-pyridin-3-yl}-propyl)-N-methyl-acetamide] | < 200 nM |
| CC(=O)N(C)CCNc1cncc(Cc2ccc(F)cc2)n1 [Compound 322, N-{2-[6-(4-Fluoro-benzyl)-pyrazin-2-ylamino]-ethyl}-N-methyl-acetamide] | 1000 to 10000 nM |
| CC(=O)N(C)CCCc1cncc(Oc2ccc(-c3cnc(N)cn3)cc2)c1 [Compound 323, N-(3-{5-[4-(5-Amino-pyrazin-2-yl)-phenoxy]-pyridin-3-yl}-propyl)-N-methyl-acetamide] | 200 to 1000 nM |
